Source: BindingDB's records for doi:10.1039/d3md00655g (Henan University, 2024)

How the values were obtained:
[1] = target: Programmed cell death 1 ligand 1 (Homo sapiens) (UniProt Q9NZQ7); assay: Inhibition of PD-1/PD-L1 (unknown origin) protein-protein interaction
[2] = target: Programmed cell death 1 ligand 1 (Homo sapiens) (UniProt Q9NZQ7); assay: Inhibition of PD-1/PD-L1 (unknown origin) interaction incubated for 15 mins by HTRF assay

Sequence of Programmed cell death 1 ligand 1 (Homo sapiens) (Q9NZQ7 whole entry, looked up): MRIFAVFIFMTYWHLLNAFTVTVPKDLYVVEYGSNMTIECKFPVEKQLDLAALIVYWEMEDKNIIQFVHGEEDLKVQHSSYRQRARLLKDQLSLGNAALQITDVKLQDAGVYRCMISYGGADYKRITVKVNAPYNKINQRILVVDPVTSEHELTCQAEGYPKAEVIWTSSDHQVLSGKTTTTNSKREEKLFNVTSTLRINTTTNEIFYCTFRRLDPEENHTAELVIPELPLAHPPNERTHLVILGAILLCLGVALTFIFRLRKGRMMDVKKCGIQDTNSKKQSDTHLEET

COc1nc(-c2cccc(-c3ccccc3F)c2C)ccc1CNCCC(N)=O
IC50 [1]: 0.00093 µM

Cc1c(COc2ccc(CN3CCNCC3)c(OCc3cn(-c4cccc(C#N)c4)nn3)c2)cccc1-c1ccccc1
IC50 [2]: 8.52 µM
